Patent publication US9663478B2, “Benzotriazine oxides as drugs targeting Mycobacterium tuberculosis” (priority 2011, dated 2017)
Values after ≈ are worked out from the molar mass of the structure shown. Where two headings read alike, the source gives them in different places.

Key:
[1] = test system: Vero cells
[2] = test system: Mtb H37Rv; test: TB MIC - ITR (UIC), Institute for Tuberculosis Research; type: cell-based, Mycobacterium tuberculosis; details: for MIC: Mycobacterium tuberculosis, H37RV, read-out: TB MIC - ITR; for MIC / TB MIC - ITR: Tables 1-4; for TB MIC - UIC: Tables P1, P2
[3] = test system: Mtb H37Rv; test: TB MIC - SRI, resazurin-based microplate assay; type: cell-based, Mycobacterium tuberculosis; details: for MIC: Mycobacterium tuberculosis, H37RV
[4] = test system: NRP Mtb H37Rv cells; test: Low-oxygen recovery assay (LORA) MIC; type: cell-based, Mycobacterium tuberculosis; details: for MIC: Mycobacterium tuberculosis, H37RV, read-out: LORA MIC - ITR; for MIC / LORA MIC - ITR: NRP Mtb, Tables 1-4 and text; for LORA MIC: Tables P1, P2, non-replicating M. tuberculosis
[5] = Tables 1-4 and text, read-out: TB MIC - SRI
[6] = Tables P1-P3, read-out: TB MIC - SRI

| Compound | Vero Tox CC50 ([1]; African green monkey, 72 h) | MIC [2] | MIC [3, 5] | MIC [4] | VERO Tox-SRI ([1]; African green monkey, 72 h) | TB MIC - UIC [2] | MIC [3, 6] | LORA MIC [4] | other results |
| --- | --- | --- | --- | --- | --- | --- | --- | --- | --- |
| COc1cc2c(cc1C)[n+]([O-])nc(NC1CCC1)[n+]2[O-] [Compound 15gd, 3-(cyclobutylamino)-6-methoxy-7-methylbenzo[e][1,2,4]triazine 1,4-dioxide] | >50 µg/mL | 5.1 µg/mL (≈ 18.5 µM) | 2.5 µg/mL (≈ 9.05 µM) | 2.9 µg/mL (≈ 10.5 µM) | – | – | – | – | – |
| COc1cc2c(cc1C)[n+]([O-])nc(N[C@@H]1C[C@H]3CC[C@@H]1C3)[n+]2[O-] [Compound 15gm, 3-((1R,2R,4S)-bicyclo[2.2.1]heptan-2-ylamino)-6-methoxy-7-methylbenzo[e][1,2,4]triazine 1,4-dioxide] | >50 µg/mL | 5.6 µg/mL (≈ 17.7 µM) | 5 µg/mL (≈ 15.8 µM) | 3.5 µg/mL (≈ 11.1 µM) | – | – | – | – | – |
| COc1ccc2c(c1)[n+]([O-])nc(N[C@@H]1C[C@H]3CC[C@@H]1C3)[n+]2[O-] [Compound 15dm, 3-((1R,2R,4S)-bicyclo[2.2.1]heptan-2-ylamino)-7-methoxybenzo[e][1,2,4]triazine 1,4-dioxide] | >50 µg/mL | 0.97 µg/mL (≈ 3.21 µM) | 0.62 µg/mL (≈ 2.05 µM) | 1.6 µg/mL (≈ 5.29 µM) | – | – | – | – | – |
| [O-][n+]1nc(NC2CCCC2)[n+]([O-])c2ccc(F)cc21 [SRI-012277] | – | – | – | – | 2.3 | 0.33 µg/mL | 0.312 µg/mL (≈ 1.18 µM) | 0.34 µg/mL | – |
| [O-][n+]1nc(NC2CCC2)[n+]([O-])c2cc3c(cc21)CCC3 [Compound 15fd, Cyclobutyl-(5,8-dioxy-2,3-dihydro-1H-5,6,8-triaza-cyclopenta[b]naphthalen-7-yl)-amine] | – | – | – | – | – | – | – | – | Vero Tox CC50 [1]: 34 µg/mL; TB MIC - ITR [2]: 0.96 µg/mL; MIC, H37Rv ([3]; Table 5): 0.62 µg/mL (≈ 2.28 µM); TB MIC - SRI ([3]; Tables 1-4 and text): 0.62 µg/mL; LORA MIC - ITR [4]: 0.44 µg/mL |
| [O-][n+]1nc(NC2CC2)[n+]([O-])c2ccc(F)cc21 [SRI-012274] | – | – | – | – | 3.5 | 0.93 µg/mL | 0.312 µg/mL (≈ 1.32 µM) | 2.8 µg/mL | – |
| [O-][n+]1nc(N[C@@H]2C[C@H]3CC[C@@H]2C3)[n+]([O-])c2ccccc21 [Compound 8m, 3-((1R,2R,4S)-bicyclo[2.2.1]heptan-2-ylamino)benzo[e][1,2,4]triazine 1,4-dioxide] | 3.4 µg/mL | 0.6 µg/mL (≈ 2.2 µM) | 0.62 µg/mL (≈ 2.28 µM) | 0.42 µg/mL (≈ 1.54 µM) | – | – | – | – | – |
| CCNc1n[n+]([O-])c2cc(Br)ccc2[n+]1[O-] [Compound 15ca, 7-bromo-3-(ethylamino)benzo[e][1,2,4]triazine 1,4-dioxide] | 4.2 µg/mL | 0.49 µg/mL (≈ 1.72 µM) | 0.62 µg/mL (≈ 2.17 µM) | 0.46 µg/mL (≈ 1.61 µM) | – | – | – | – | – |
| CCCC(C)Nc1n[n+]([O-])c2ccccc2[n+]1[O-] (stereo not shown) [Compound 8h, 3-(pentan-2-ylamino)benzo[e][1,2,4]triazine 1,4-dioxide] | 26 µg/mL | 1.9 µg/mL (≈ 7.65 µM) | 5 µg/mL (≈ 20.1 µM) | 0.99 µg/mL (≈ 3.99 µM) | – | – | – | – | – |
| CCNc1n[n+]([O-])c2cc(Cl)ccc2[n+]1[O-] [SRI-012306] | – | – | – | – | 2.65 | < 0.125 µg/mL | 1.25 µg/mL (≈ 5.19 µM) | 0.41 µg/mL | – |
| CCNc1n[n+]([O-])c2cccc(C)c2[n+]1[O-] [Compound 15ea, Ethyl-(5-methyl-1,4-dioxy-benzo[1,2,4]triazin-3-yl)-amine] | – | – | – | – | – | – | – | – | Vero Tox CC50 [1]: 22 µg/mL; TB MIC - ITR [2]: 0.51 µg/mL; MIC, H37Rv ([3]; Table 5): 0.62 µg/mL (≈ 2.82 µM); TB MIC - SRI ([3]; Tables 1-4 and text): 0.62 µg/mL; LORA MIC - ITR [4]: 0.48 µg/mL |
| CCC(CC)Nc1n[n+]([O-])c2cc(F)ccc2[n+]1[O-] [SRI-012279] | – | – | – | – | 4.4 | 0.49 µg/mL | 1.25 µg/mL (≈ 4.69 µM) | 0.71 µg/mL | – |
| CC(C)(C)Nc1n[n+]([O-])c2ccccc2[n+]1[O-] [Compound 8c, 3-(tert-butylamino)benzo[e][1,2,4]triazine 1,4-dioxide] | 8.0 µg/mL | 1.9 µg/mL (≈ 8.11 µM) | 1.2 µg/mL (≈ 5.12 µM) | 0.82 µg/mL (≈ 3.5 µM) | – | – | – | – | MIC ([3]; Table 5, read-out: MIC, H37Rv): 2.5 µg/mL (≈ 10.7 µM) |
| CC(Nc1n[n+]([O-])c2cc(F)ccc2[n+]1[O-])C(C)(C)C (stereo not shown) [SRI-012283] | – | – | – | – | <2.5 | 0.5 µg/mL | 1.25 µg/mL (≈ 4.46 µM) | 0.42 µg/mL | – |
| [O-][n+]1nc(N[C@@H]2C[C@H]3CC[C@@H]2C3)[n+]([O-])c2ccc(Br)cc21 [Compound 15cm, 3-((1R,2R,4S)-bicyclo[2.2.1]heptan-2-ylamino)-7-bromobenzo[e][1,2,4]triazine 1,4-dioxide] | 0.80 µg/mL | 0.36 µg/mL (≈ 1.03 µM) | 0.31 µg/mL (≈ 0.883 µM) | 0.41 µg/mL (≈ 1.17 µM) | – | – | – | – | – |
| COc1ccc2c(c1)[n+]([O-])nc(NC1CCC1)[n+]2[O-] [Compound 15dd, 3-(cyclobutylamino)-7-methoxybenzo[e][1,2,4]triazine 1,4-dioxide] | 9.8 µg/mL | 0.96 µg/mL (≈ 3.66 µM) | 0.62 µg/mL (≈ 2.36 µM) | 0.9 µg/mL (≈ 3.43 µM) | – | – | – | – | – |
